Here are results for seven molecules from patent publication US5532372A, “Imide derivatives, and their production and use” (Sumitomo Pharmaceuticals Company, Ltd., priority 1990, dated 1996).

The subject of one data set is mice. Briefly: Anti-climbing activity (in vivo), climbing behavior induced by apomorphine in mice. Also noted: species or system mice (ddY strain male). Particulars: Mus musculus, 1 h, read-out: ED50 (50% suppressive dose) of climbing behavior. An excerpt: (ii) Anti-climbing activity (in vivo)
This activity is examined through the anti-climbing behavior test, i.e. the test for suppressing the climbing behavior induced by apomorphine in mice.
A designed amount of the test compound is orally administered to several groups of ddY strain male mice (bodyweight, 20 to 25 g; one group, 5 mice), and each of the animals is placed in an individual column cage of 12 cm in diameter and 14 cm in height having metal poles (each pole, 2 mm in diameter) vertically installed and arranged along the periphery with intervals of 1 cm. After 60 minutes, apomorphine (1.0 mg/kg) is subcutaneously injected, and the behavior is observed during 10 to 20 minutes.
0 All the paws are on the floor
1 only forepaws seize the pole of the cage
2 All the paws seize the pole of the cage;
climbing behavior observed discontinuously
3 Continuous climbing behavior observed

A short description of data set [1]: Catalepsy inducing activity (extrapyramidal side-effect). Set-up: species or system male mice. Particulars: mouse, in vivo; oral, one hour later, mice; Table 5. From the text:
A designated amount of the test compounds is orally administered to male mice, and one hour later a pair of forepaws are forcedly hanged on an iron pipe (diameter, 2.5 mm) horizontally set at a height of 5 cm. At least one cataleptic state of more than 30 second per three trials is regarded as positive.

The nature of a further data set: in vivo. Particulars: mouse, po.
A further data set concerns the target T1, dopamine D2 receptor (Rattus norvegicus, UniProt P61169).
T1 construct: from tissue; host or cells: rat corpus striatum, membrane fractions
Briefly: Dopamine D2 receptor binding assay (in vitro), [3H] raclopride. Conditions: at the concentration of 0.01 μM; Table 3; read-out: Antipsychotic activity (% inhibition), inhibition of [3H] raclopride binding to D2 receptors.

The mark [2] stands for this setting: oral, 60 minutes before apomorphine (1.0 mg/kg s.c.), mice, Table 4.

The structures appear in SMILES notation. Where two headings read alike, the source gives them in different places. Where only a bound is given, the exact number is not on record here.

T1 sequence (P61169 whole entry): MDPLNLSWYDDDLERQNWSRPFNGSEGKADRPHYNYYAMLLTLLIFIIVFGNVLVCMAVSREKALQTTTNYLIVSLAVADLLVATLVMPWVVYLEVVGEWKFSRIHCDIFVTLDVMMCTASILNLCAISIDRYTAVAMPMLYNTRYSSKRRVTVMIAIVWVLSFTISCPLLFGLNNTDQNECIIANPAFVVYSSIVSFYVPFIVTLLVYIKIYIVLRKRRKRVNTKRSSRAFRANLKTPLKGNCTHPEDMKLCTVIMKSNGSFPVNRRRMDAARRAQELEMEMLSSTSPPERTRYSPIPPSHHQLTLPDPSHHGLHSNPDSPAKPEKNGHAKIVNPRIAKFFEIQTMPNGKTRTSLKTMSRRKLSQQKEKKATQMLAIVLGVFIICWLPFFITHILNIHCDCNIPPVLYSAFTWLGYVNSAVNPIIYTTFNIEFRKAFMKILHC

What is called ED50 is the dose that gives a 50% effect, or the effect in half of the subjects. As for `O=C1[C@@H]2[C@H]3CC[C@H](C3)[C@@H]2C(=O)N1C[C@@H]1CCCC[C@H]1CN1CCN(c2nsc3ccccc23)CC1` (relative stereo) [Compound No. 101], the ED50 in the data set with mice (setting [2]) was determined as 10.3 mg/kg. Moreover, the ED50 at 1 h in data set [1] is 747 mg/kg; in “in vivo”, > 1000 mg/kg.

Broadly, the inhibition is the relative decrease from the control value, in per cent. Consider `O=C1[C@H]2CCCC[C@H]2C(=O)N1C[C@@H]1C[C@H]1CN1CCN(c2nsc3ccccc23)CC1` (relative stereo) [Compound No. 107], for which the ED50 in the data set on mice (setting [2]) turned out to be 26.5 mg/kg. Also, the inhibition at 0.01 µM on dopamine D2 receptor stood at 71%.

Regarding `O=C(c1ccc(F)cc1)C1CCN(C[C@@H]2C[C@H]2CN2C(=O)[C@H]3CCCC[C@H]3C2=O)CC1` (relative stereo) [compound 161], on dopamine D2 receptor, the inhibition at 0.01 µM is 24%.

Take `O=C1[C@@H]2[C@H]3CC[C@H](C3)[C@@H]2C(=O)N1C[C@@H]1C[C@H]1CN1CCN(c2ncccn2)CC1` (relative stereo) [compound 163]: the inhibition at 0.01 µM on dopamine D2 receptor was 11%.

For `CN(C)CCCN1c2ccccc2Sc2ccc(Cl)cc21` [Chlorpromazine, reference compound], the ED50 with mice (po) turned out to be 4.2 mg/kg. For the same molecule, in data set [1], it took a dose of 18 mg/kg to reach the 50% effect level (ED50 at 1 h).

For `O=C1[C@@H]2[C@H]3CC[C@H](C3)[C@@H]2C(=O)N1C1CCCC(CN2CCN(c3nsc4ccccc34)CC2)C1` (stereo partly shown) [Compound No. 106], the inhibition at 0.01 µM at dopamine D2 receptor amounted to 90%.

In the case of `O=C(CCCN1CCC(O)(c2ccc(Cl)cc2)CC1)c1ccc(F)cc1` [Haloperidol, reference compound], the ED50 in the data set on mice (setting [2]) turned out to be 0.67 mg/kg. Also, the ED50 at 1 h in data set [1] was found to be 3.1 mg/kg; in the data set “in vivo”, 4.1 mg/kg.
